Test results taken from ChEMBL document CHEMBL4689842, “EUbOPEN Chemogenomics Library wave 1” (2021).

Assays:
Assay type in all cases: toxicity, cell-based
HEK-293T = experiment: Incucyte cell viability with HEK293T; conditions: human, 10 µM, compound concentration 10 uM
Fibroblast = experiment: Incucyte cell viability with human fibroblast; conditions: 10 µM, compound concentration 10 uM
U2OS = experiment: Incucyte cell viability with U2OS; conditions: human, 10 µM, compound concentration 10 uM
[1] = 0 h, replicate number 1, timepoint 0 hours
[2] = 0 h, replicate number 2, timepoint 0 hours
[3] = 6 h, replicate number 1, timepoint 6 hours
[4] = 6 h, replicate number 2, timepoint 6 hours
[5] = 12 h, replicate number 1, timepoint 12 hours
[6] = 12 h, replicate number 2, timepoint 12 hours
[7] = 18 h, replicate number 1, timepoint 18 hours
[8] = 18 h, replicate number 2, timepoint 18 hours
[9] = 24 h, replicate number 1, timepoint 24 hours
[10] = 24 h, replicate number 2, timepoint 24 hours
Also: filed as whole numbers so only -1 and 0 and 1 occur.

Row | Compound | Growth Rate (HEK-293T; [1]) | Growth Rate (HEK-293T; [3]) | Growth Rate (HEK-293T; [5]) | Growth Rate (HEK-293T; [7]) | Growth Rate (HEK-293T; [9]) | Growth Rate (Fibroblast; [1]) | Growth Rate (Fibroblast; [3]) | Growth Rate (Fibroblast; [5]) | Growth Rate (Fibroblast; [7]) | Growth Rate (Fibroblast; [9]) | Growth Rate (U2OS; [1]) | Growth Rate (U2OS; [3]) | Growth Rate (U2OS; [5]) | Growth Rate (U2OS; [7]) | Growth Rate (U2OS; [9]) | Growth Rate (U2OS; [10]) | Growth Rate (Fibroblast; [10]) | Growth Rate (U2OS; [4]) | Growth Rate (Fibroblast; [4]) | Growth Rate (Fibroblast; [8]) | also measured
1 | CCCCc1nc2ccc(NC(=O)NC3CCCCC3)cc2n1Cc1ccc(-c2ccccc2C(=O)O)cc1 | 1 | 0 | 0 | 0 | 0 | 0 | 1 | 0 | 1 | 1 | 0 | 0 | 0 | 0 | 0 | 1 | – | – | – | – | Growth Rate (HEK-293T; [2]): 0; Growth Rate (HEK-293T; [4]): 1; Growth Rate (HEK-293T; [6]): 1; Growth Rate (HEK-293T; [8]): 1; Growth Rate (U2OS; [6]): 1; Growth Rate (U2OS; [8]): 1
2 | CCOC(=O)c1cc(C#N)c(N2CCC(C(=O)NS(=O)(=O)Cc3ccccc3)CC2)nc1C | 1 | 0 | 0 | 0 | 0 | 0 | 0 | 0 | 0 | 1 | – | 1 | 0 | 0 | 0 | 1 | 0 | 0 | – | – | Growth Rate (HEK-293T; [2]): 0; Growth Rate (HEK-293T; [4]): 1; Growth Rate (HEK-293T; [10]): 1; Growth Rate (U2OS; [2]): 1; Growth Rate (U2OS; [6]): 1; Growth Rate (U2OS; [8]): 1
3 | C=CCN1C[C@H](C)N([C@H](c2ccc(C(=O)N(CC)CC)cc2)c2cccc(O)c2)C[C@H]1C | 1 | 0 | 0 | 0 | 0 | 0 | 0 | 0 | 0 | 1 | 0 | – | – | 1 | 1 | – | 0 | 1 | – | – | Growth Rate (HEK-293T; [2]): 0; Growth Rate (U2OS; [6]): 1
4 | Cc1nc(C#Cc2ccnc(Cl)c2)c(C)n1-c1ccc(OC(F)(F)F)cc1 | 0 | 0 | 0 | 0 | 0 | 1 | 1 | 0 | 1 | 1 | 0 | – | 1 | 1 | 1 | – | 0 | – | 0 | 0 | Growth Rate (Fibroblast; [2]): 0
5 | C[C@H](CO)Nc1nc(SCc2cccc(Cl)c2F)nc2[nH]c(=O)sc12 | 0 | 1 | 1 | 1 | 1 | 0 | 1 | 1 | 1 | 1 | – | 1 | 0 | 0 | 1 | 0 | – | 0 | 0 | 0 | –
6 | CCNC(=O)c1cc2c(N3CCOC[C@@H]3C)ccnc2[nH]1 | 1 | 0 | 0 | 0 | 0 | 0 | 0 | 1 | 1 | 1 | 1 | 1 | 0 | 0 | 0 | – | 0 | 0 | 1 | 0 | Growth Rate (HEK-293T; [2]): 0; Growth Rate (Fibroblast; [6]): 0
7 | N#Cc1c(N)nc(SCC(N)=O)c(C#N)c1-c1ccc(OCC2CC2)cc1 | 0 | 1 | 1 | 0 | 0 | 0 | – | – | – | 1 | 0 | – | 1 | 1 | 1 | 0 | – | 0 | 0 | 1 | Growth Rate (HEK-293T; [6]): 0; Growth Rate (Fibroblast; [6]): 1
8 | CCCCN(CCCC)C(=O)CN1C[C@@H](c2ccc3c(c2)OCO3)[C@H](C(=O)O)[C@H]1c1ccc(OC)cc1 | 0 | 1 | 1 | 1 | 1 | 0 | – | – | 1 | 1 | – | 0 | 0 | 0 | 0 | – | 0 | – | 0 | – | Growth Rate (HEK-293T; [8]): 0; Growth Rate (HEK-293T; [10]): 0; Growth Rate (Fibroblast; [6]): 1
9 | CCN(CC)CCCCC1CCN(CC(=O)N2c3ccccc3C(=O)Nc3cccnc32)CC1 | 0 | 1 | 1 | 1 | 1 | 0 | – | 1 | 1 | 1 | 0 | – | 1 | 1 | 1 | 0 | – | 0 | – | – | Growth Rate (Fibroblast; [2]): 1; Growth Rate (U2OS; [8]): 0
10 | O=C(NCc1ccc(F)cc1)C1CCN(S(=O)(=O)c2cc(Cl)cc(Cl)c2)CC1 | 0 | 1 | 1 | 0 | 0 | 0 | – | – | – | 1 | 0 | – | 1 | 0 | 0 | 1 | – | 0 | 1 | 1 | Growth Rate (HEK-293T; [6]): 0; Growth Rate (Fibroblast; [6]): 1; Growth Rate (U2OS; [6]): 0; Growth Rate (U2OS; [8]): 1
11 | CCCCN(CCCC)C(=O)CN1C[C@@H](c2cc(OC)c3c(c2)OCO3)[C@H](C(=O)O)[C@H]1CC(C)(C)CCC.Cl | 0 | 0 | 0 | 0 | 0 | – | 0 | 0 | 0 | 0 | – | – | 0 | 0 | 0 | 1 | 1 | 0 | – | 1 | Growth Rate (Fibroblast; [2]): 0; Growth Rate (Fibroblast; [6]): 1; Growth Rate (U2OS; [8]): 1
